Assay: Electrode soaking test in electrolyte (coloration of electrolyte)
Type: physicochemical
Settings: electrodes with 90 wt.% of TAQ soaked in 2 mL of 1 M LiTFSI in DOL/DME (1/1 vol.%), -20 °C to 70 °C, 24 hours; no coloration of electrolyte
Text: The high-temperature performance of organic cathode materials for LIBs depends on the solubility of the active materials in organic electrolytes as dissolution leads to rapid capacity decay, dramatically reducing the cycling lifetime. On the other hand, the performance of LIBs at low temperatures is heavily dependent on the charge transport and transfer resistance, as well as the solid-state Li^+ diffusion resistance of the electrode. The solubility of TAQ electrodes and deeply lithiated TAQ (Lix-TAQ, 3<x<4) electrodes in a commercially available electrolyte (1 M LiTFSI in DOL/DME (1/1 vol.%)) under various temperatures was evaluated (FIGS. 24C and 31). […] The electrodes were soaked in 2 mL of electrolyte, and kept under various temperatures ranging from -20 °C to 70 °C for 24 hours. […] This insolubility stems from strong intermolecular hydrogen bonding between TAQ molecules and interlayer π- π stacking, which both persist even upon deep lithiation.

SMILES: Nc1c(N)c(=O)c2[nH]c3c(=O)c(N)c(N)c(=O)c3[nH]c2c1=O [TAQ, bis-tetraaminobenzoquinone]
- solubility of electrodes: complete insolubility

From patent EP4632836A1, “BATTERIES FOR OPERATION ACROSS TEMPERATURES AND RELATED METHODS” (Massachusetts Institute of Technology, priority 2024, dated 2025)
